Drawing on ChEMBL document CHEMBL5257045, “Antiparasitic Activity of Two Natural Terpenes from Salvia cuspidata against Leishmania amazonensis” (2023), this text covers mortality and Activity for five compounds.

In experiment [1] the test system is Leishmania amazonensis. The experiment in a line: Antileishmanial activity against Leishmania amazonensis MHOM/VE/84/MEL promastigotes assessed as parasite mortality at 29.2 uM measured after 2 day by dye exclusion method (reference value: 11.6 +/- 3.3). The class given is functional. Particulars: 48 h.
Experiment [2] concerns Leishmania amazonensis. The experiment in a line: Antileishmanial activity against Leishmania amazonensis promastigotes infected in BALB/c mouse assessed as reduction of IgG1 level at 1 mg/kg per day administered once a week for 4 weeks measured at 10 week by ELISA assay. The format is functional, organism-based. For orientation: ELISA stands for enzyme-linked immunosorbent assay.

The test system of experiment [3] is Leishmania amazonensis. The experiment in a line: Induction of ROS generation in Leishmania amazonensis promastigotes at 4.3 to 29.2 uM incubated for 48 hrs followed by probe addition measured after 1 hr by H2DCFDA probe based fluorometry analysis. The class given is functional, organism-based. Particulars: dose 4.3-29.2 µM, time 49.0 hrs.
In experiment [4] the test system is Leishmania amazonensis. The experiment in a line: Antileishmanial activity against Leishmania amazonensis promastigotes infected in BALB/c mouse assessed as reduction in RHLF lesion size at 1 mg/kg per day administered once a week for 4 weeks measured at 10 week. The class given is functional, organism-based.
Experiment [5] relates to Leishmania amazonensis. The experiment in a line: Antileishmanial activity against Leishmania amazonensis MHOM/VE/84/MEL promastigotes assessed as parasite mortality at 14.3 uM measured after 2 day by dye exclusion method (reference value: 11.6 +/- 3.3). Particulars: 48 h. The format is functional.
Experiment [6] relates to Leishmania amazonensis. The experiment in a line: Antileishmanial activity against Leishmania amazonensis MHOM/VE/84/MEL promastigotes assessed as parasite mortality at 14.3 uM measured after 1 day by dye exclusion method (reference value: 14.5 +/- 3.5). The class given is functional. Particulars: 24 h.
Experiment [7] has as its system Leishmania amazonensis. The experiment in a line: Antileishmanial activity against Leishmania amazonensis promastigotes infected in BALB/c mouse assessed as reduction of splenic index at 1 mg/kg per day administered once a week for 4 weeks measured at 10 week. The format is functional, organism-based.
Experiment [8] relates to Leishmania amazonensis. The experiment in a line: Antileishmanial activity against Leishmania amazonensis promastigotes infected in BALB/c mouse assessed as reduction of IgG level at 1 mg/kg per day administered once a week for 4 weeks measured at 10 week by ELISA assay. The class given is functional, organism-based.
Experiment [9] concerns Leishmania amazonensis. The experiment in a line: Antileishmanial activity against Leishmania amazonensis MHOM/VE/84/MEL promastigotes assessed as parasite mortality at 29.2 uM measured after 1 day by dye exclusion method (reference value: 14.5 +/- 3.5). The format is functional. Particulars: 24 h.
The test system of experiment [10] is Leishmania amazonensis. The experiment in a line: Antileishmanial activity against Leishmania amazonensis promastigotes infected in BALB/c mouse assessed as reduction of parasite burden at 1 mg/kg per day administered once a week for 4 weeks measured at 10 week by limit dilution assay. The format is functional, organism-based.
Experiment [11] has as its system Leishmania amazonensis. The experiment in a line: Antileishmanial activity against Leishmania amazonensis MHOM/VE/84/MEL promastigotes assessed as parasite mortality at 4.3 uM measured after 1 day by dye exclusion method (reference value: 14.5 +/- 3.5). The class given is functional. Particulars: 24 h.
Experiment [12] deals with Leishmania amazonensis. The experiment in a line: Induction of ROS generation in Leishmania amazonensis promastigotes assessed as reduction in endogenous GSH level at 4.3 to 29.2 uM incubated for 3 hrs by absorbance based analysis. The format is functional, organism-based. Particulars: dose 4.3-29.2 µM.
Experiment [13] relates to Leishmania amazonensis. The experiment in a line: Induction of ROS generation in Leishmania amazonensis promastigotes assessed as reduction in mitochondrial activity at 4.3 to 29.2 uM incubated for 48 hrs by MTT assay. The class given is functional, organism-based. The conditions noted are these: dose 4.3-29.2 µM. On the technique in general: Tetrazolium dyes change colour on reduction, which living cells bring about.

Experiment [14] deals with Leishmania amazonensis. The experiment in a line: Antileishmanial activity against Leishmania amazonensis MHOM/VE/84/MEL promastigotes assessed as parasite mortality at 4.3 uM measured after 2 day by dye exclusion method (reference value: 11.6 +/- 3.3). The format is functional. Particulars: 48 h.
Experiment [15] concerns Leishmania amazonensis. The experiment in a line: Antileishmanial activity against Leishmania amazonensis MHOM/VE/84/MEL promastigotes assessed as parasite mortality at 38.4 uM measured after 1 day by dye exclusion method (reference value: 14.5 +/- 3.5). The class given is functional. The conditions noted are these: 24 h.
The subject of experiment [16] is Leishmania amazonensis. The experiment in a line: Antileishmanial activity against Leishmania amazonensis MHOM/VE/84/MEL promastigotes assessed as parasite mortality at 38.4 uM measured after 2 day by dye exclusion method (reference value: 11.6 +/- 3.3). The format is functional. Particulars: 48 h.
For experiment [17], the system named is Leishmania amazonensis. The experiment in a line: Antileishmanial activity against Leishmania amazonensis promastigotes infected in BALB/c mouse assessed as reduction of parasite burden at 400 mg/kg per day, ip administered for 30 days measured at 10 week by limit dilution assay. The format is functional, organism-based. Particulars: time 30.0 day.
The test system of experiment [18] is Leishmania amazonensis. The experiment in a line: Antileishmanial activity against Leishmania amazonensis promastigotes infected in BALB/c mouse assessed as reduction of IgG level at 400 mg/kg per day, ip administered for 30 days measured at 10 week by ELISA assay. The class given is functional, organism-based. The conditions noted are these: time 30.0 day.

Experiment [19] has as its system Leishmania amazonensis. The experiment in a line: Antileishmanial activity against Leishmania amazonensis promastigotes infected in BALB/c mouse assessed as reduction of splenic index at 400 mg/kg per day, ip administered for 30 days measured at 10 week. The conditions noted are these: time 30.0 day. The format is functional, organism-based.
The subject of experiment [20] is Leishmania amazonensis. The experiment in a line: Antileishmanial activity against Leishmania amazonensis promastigotes infected in BALB/c mouse assessed as wound closure at 400 mg/kg per day, ip administered for 30 days. The class given is functional, organism-based. Particulars: time 30.0 day.
The test system of experiment [21] is Leishmania amazonensis. The experiment in a line: Antileishmanial activity against Leishmania amazonensis promastigotes infected in BALB/c mouse assessed as reduction in RHLF lesion size at 400 mg/kg per day, ip administered for 30 days. The format is functional, organism-based. The conditions noted are these: time 30.0 day.
The test system of experiment [22] is Leishmania amazonensis. The experiment in a line: Antileishmanial activity against Leishmania amazonensis promastigotes infected in BALB/c mouse assessed as reduction of IgG1 level at 400 mg/kg per day, ip administered for 30 days measured at 10 week by ELISA assay. The format is functional, organism-based. Particulars: time 30.0 day.
In the next experiment the test system is Leishmania donovani. The experiment in a line: Antileishmanial activity against Leishmania donovani MHOM/IN/83/AG83 promastigotes infected in BALB/c mouse assessed as reduction of parasite burden in spleen at 5 to 10 mg/kg per day. The conditions noted are these: dose 5-10 mg/kg. The class given is functional, organism-based.

Where “and” joins values, the source holds several entries; their conditions need not be identical. Equal values may be shown once. Calls of active or inactive are those of the source. No cut-off for these calls is given here.

The mortality is the share of the test organisms that died. For `CC(C)C1=C(O)C(=O)C2=C(C=C[C@H]3[C@]4(CCC[C@]3(C)C(=O)O4)C2)C1=O`, the figures for the mortality at 29.2 µM in the experiment with Leishmania amazonensis [1] and with Leishmania amazonensis [9] were 77.5% and 65%, respectively. For the same compound, the outcome in the experiment on Leishmania amazonensis [2], in the experiment with Leishmania amazonensis [3], in the experiment with Leishmania amazonensis [4], in the experiment with Leishmania amazonensis [7], with Leishmania amazonensis [8] and in the experiment with Leishmania amazonensis [10] was Active. The outcome with Leishmania amazonensis [12] and in the experiment on Leishmania amazonensis [13] was Active. The values for the mortality at 14.3 µM with Leishmania amazonensis [5] and in the experiment on Leishmania amazonensis [6] were 51.5% and 47%, respectively. The mortality in the experiment with Leishmania amazonensis [11] was 10% and 26.5%. In addition, the mortality at 4.3 µM with Leishmania amazonensis [14] was found to be 26.5%.
Turning to `CC(=O)N1CCN(c2ccc(OCC3COC(Cn4ccnc4)(c4ccc(Cl)cc4Cl)O3)cc2)CC1` (configuration not stated) [KETOCONAZOLE], the figures for the mortality at 38.4 µM with Leishmania amazonensis [15] and with Leishmania amazonensis [16] were 48.5% and 79.4%, respectively.
Take `C[C@@]12CCC[C@]3(COC1=O)CC1=C(C=C[C@@H]32)C(=O)C=C(O)C1=O`: the mortality at 29.2 µM is 98.5% in the experiment with Leishmania amazonensis [1] and 96.5% in the experiment with Leishmania amazonensis [9]. The outcome with Leishmania amazonensis [2], in the experiment on Leishmania amazonensis [3], in the experiment with Leishmania amazonensis [4], with Leishmania amazonensis [7], in the experiment on Leishmania amazonensis [8] and in the experiment on Leishmania amazonensis [10] was Active. For the same compound, the outcome in the experiment with Leishmania amazonensis [12] and with Leishmania amazonensis [13] was Active. Besides, the mortality at 14.3 µM with Leishmania amazonensis [5] was 92%; in the experiment on Leishmania amazonensis [6] it was 55%. Further, in the experiment with Leishmania amazonensis [11], the mortality is 33.5% and 87.5%. The mortality at 4.3 µM with Leishmania amazonensis [14] worked out at 87.5%.
MEGLUMINE ANTIMONATE: the result with Leishmania amazonensis [17], with Leishmania amazonensis [18], in the experiment on Leishmania amazonensis [19], in the experiment with Leishmania amazonensis [21] and with Leishmania amazonensis [22] was Active. Moreover, the outcome with Leishmania amazonensis [20] was inactive.
As to `C[C@@H]1CC[C@H]2[C@@H](C)C(=O)O[C@@H]3O[C@@]4(C)CC[C@@H]1[C@]32OO4`, the outcome in the experiment on Leishmania donovani was Active.
